From patent US9365588B2, “Benzoxazines as modulators of ion channels” (Vertex Pharmaceuticals Incorporated, priority 2011, dated 2016) come the findings set out here.

The target in the assay is human NaV 1.7 (Homo sapiens, UniProt Q15858). Kind of assay: E-VIPR optical membrane potential assay with electrical stimulation. The assay is classed as cell-based. The conditions noted are these: sodium channel inhibition; read-out: Binned Activity Data (IC50). The procedure, abridged:
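Membrane-potential read-out: background-subtracted 460 nm/580 nm ratio during a 9 s current-controlled stimulus, 400 Hz scan. Before stimulation, NaV1.7-HEK cells carried coumarin/oxonol dye and compound (final DMSO 0.625%) for 20–35 min at room temperature; tetracaine 125 μM served as positive control.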

pIC50: −log10 of the molar value.

Chain of human NaV 1.7 (Q15858 whole entry): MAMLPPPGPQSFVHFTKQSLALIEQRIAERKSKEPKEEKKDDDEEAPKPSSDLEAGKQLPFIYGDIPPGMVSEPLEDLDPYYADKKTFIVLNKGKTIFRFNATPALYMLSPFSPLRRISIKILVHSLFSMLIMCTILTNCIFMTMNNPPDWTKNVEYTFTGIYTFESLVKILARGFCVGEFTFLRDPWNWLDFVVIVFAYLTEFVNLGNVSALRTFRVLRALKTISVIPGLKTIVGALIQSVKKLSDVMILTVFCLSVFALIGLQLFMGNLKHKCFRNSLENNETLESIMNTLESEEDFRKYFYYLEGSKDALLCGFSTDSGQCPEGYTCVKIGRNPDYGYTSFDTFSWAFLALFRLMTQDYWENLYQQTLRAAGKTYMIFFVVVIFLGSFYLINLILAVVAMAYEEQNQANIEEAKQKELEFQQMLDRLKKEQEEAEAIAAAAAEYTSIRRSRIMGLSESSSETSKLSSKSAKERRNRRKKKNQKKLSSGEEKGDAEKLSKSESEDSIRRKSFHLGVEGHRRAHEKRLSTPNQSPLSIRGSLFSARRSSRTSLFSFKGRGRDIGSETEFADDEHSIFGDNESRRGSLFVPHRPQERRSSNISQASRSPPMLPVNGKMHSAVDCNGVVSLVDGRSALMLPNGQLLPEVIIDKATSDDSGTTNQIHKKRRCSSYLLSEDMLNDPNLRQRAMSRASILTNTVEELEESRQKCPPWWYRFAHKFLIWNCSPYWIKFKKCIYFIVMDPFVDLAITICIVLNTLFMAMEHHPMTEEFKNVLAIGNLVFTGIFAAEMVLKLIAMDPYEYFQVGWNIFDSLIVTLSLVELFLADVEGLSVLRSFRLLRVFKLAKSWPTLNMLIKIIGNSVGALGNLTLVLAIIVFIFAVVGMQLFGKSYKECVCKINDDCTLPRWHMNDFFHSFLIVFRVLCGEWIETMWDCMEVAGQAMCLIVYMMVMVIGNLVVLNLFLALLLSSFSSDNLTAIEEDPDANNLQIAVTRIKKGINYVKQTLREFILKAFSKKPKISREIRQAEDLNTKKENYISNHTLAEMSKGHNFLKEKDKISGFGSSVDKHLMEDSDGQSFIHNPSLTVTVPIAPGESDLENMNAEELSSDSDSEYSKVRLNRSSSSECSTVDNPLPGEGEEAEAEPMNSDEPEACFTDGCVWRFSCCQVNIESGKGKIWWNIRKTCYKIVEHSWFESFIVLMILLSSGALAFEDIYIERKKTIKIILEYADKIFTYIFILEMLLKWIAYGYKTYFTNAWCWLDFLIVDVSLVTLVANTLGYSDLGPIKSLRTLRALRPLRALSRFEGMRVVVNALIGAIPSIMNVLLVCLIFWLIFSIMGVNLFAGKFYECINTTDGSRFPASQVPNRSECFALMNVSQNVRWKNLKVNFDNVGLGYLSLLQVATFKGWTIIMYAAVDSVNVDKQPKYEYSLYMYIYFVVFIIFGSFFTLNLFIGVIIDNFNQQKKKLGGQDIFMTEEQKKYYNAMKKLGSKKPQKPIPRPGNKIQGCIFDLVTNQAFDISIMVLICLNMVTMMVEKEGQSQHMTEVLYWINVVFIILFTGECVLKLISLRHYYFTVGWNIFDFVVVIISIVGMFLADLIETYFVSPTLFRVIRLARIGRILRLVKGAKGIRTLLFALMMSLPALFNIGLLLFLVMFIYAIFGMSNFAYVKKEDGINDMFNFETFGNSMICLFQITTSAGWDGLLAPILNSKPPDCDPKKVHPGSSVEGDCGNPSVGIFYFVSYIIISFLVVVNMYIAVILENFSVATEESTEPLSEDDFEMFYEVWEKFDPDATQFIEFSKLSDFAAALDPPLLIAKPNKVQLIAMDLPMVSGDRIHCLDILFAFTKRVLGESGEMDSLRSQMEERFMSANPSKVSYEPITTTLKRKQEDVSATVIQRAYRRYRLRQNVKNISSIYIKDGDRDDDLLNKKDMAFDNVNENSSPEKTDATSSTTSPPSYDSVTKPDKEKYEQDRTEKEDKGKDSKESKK

As to `COc1cc(C(=O)N2CCC3(CC2)Oc2ccccc2-n2c(C#N)ccc23)ccc1OC(C)C` [Compound 156], the pIC50 is no less than 5.70.

As for `CC(C)n1ncc2c1-c1ccccc1OC21CCN(C(=O)c2ccccc2OC(F)F)CC1` [Compound 705], the pIC50 was no less than 5.70.

Take `CCOc1ccccc1C(=O)N1CCC2(CC1)Oc1ccccc1-c1c2cnn1C` [Compound 212]: the pIC50 was no less than 5.70.

Take `COc1cc(C(=O)N2CCC3(CC2)Oc2ccccc2-c2c3cnn2C)ccc1C(C)(C)CO` [Compound 716]: the pIC50 is no less than 5.70.

On to `Cn1ncc2c1-c1ccccc1OC21CCN(C(=O)c2ccc(OC(F)F)cc2)CC1` [Compound 811], for which the pIC50 was less than 5.30.

On to `O=C(c1cccc(C(F)(F)F)c1)N1CCC2(CC1)Oc1cc(Cl)ccc1-n1cccc12` [Compound 367], for which the negative-log IC50 (pIC50) was no less than 5.70.

Consider `Cn1ncc2c1-c1ccccc1OC21CCN(C(=O)c2ccc(S(=O)(=O)NC3CC3)cc2)CC1` [Compound 243], for which the pIC50 is no less than 5.70.

As for `CCCOc1ccc(C(=O)N2CCC3(CC2)Oc2ccccc2-n2cccc23)cc1C#N` [Compound 361], the pIC50 was no less than 5.70.

For the compound `CC(C)(C)c1ccc(C(=O)N2CCC3(CC2)Oc2ccccc2-n2c3ccc2S(C)(=O)=O)cc1` [Compound 265], the pIC50 is no less than 5.70.

With `Cn1ncc2c1-c1ccc(Cl)cc1OC21CCN(C(=O)c2ccccc2OC(F)F)CC1` [Compound 623], the pIC50 is no less than 5.70.

For `Cn1ncc2c1-c1ccccc1OC21CCN(C(=O)c2ccccc2OCC(F)(F)F)CC1` [Compound 593], the negative-log IC50 (pIC50) was no less than 5.70.

For the compound `CC(C)Oc1ccc(C(=O)N2CCC3(CC2)Oc2ccccc2-n2c3ccc2S(C)(=O)=O)c(F)c1` [Compound 70], the pIC50 is no less than 5.70.

As for `CC(C)(C)Sc1ccc(C(=O)N2CCC3(CC2)Oc2ccccc2-n2c(C(F)(F)F)ccc23)cc1` [Compound 879], the pIC50 is no less than 5.70.

For `COc1ccc(C)cc1C(=O)N1CCC2(CC1)Oc1ccccc1-c1c2cnn1C` [Compound 236], the pIC50 is less than 5.30.

As to `CCc1ccc(C(=O)N2CCC3(CC2)Oc2cc(CN)ccc2-n2cccc23)cc1OC` [Compound 137], the pIC50 is less than 5.30.

For `COCCOc1ccc(C(=O)N2CCC3(CC2)Oc2ccccc2-c2c3cnn2CCOC)cc1OC` [Compound 469], the negative logarithm of the IC50 (pIC50) was 5.30 to 5.70.

With `C[C@](O)(CO)c1ccc(C(=O)N2CCC3(CC2)Oc2ccccc2-n2c(C#N)ccc23)cc1` [Compound 571], the pIC50 is no less than 5.70.

Regarding `CCc1ccc(C(=O)N2CCC3(CC2)Oc2cc(F)ccc2-n2cccc23)cc1C` [Compound 377], the pIC50 is no less than 5.70.

`COc1cc(OC(C)(C)C#N)ccc1C(=O)N1CCC2(CC1)Oc1ccccc1-c1c2cnn1C` [Compound 734]: the pIC50 is no less than 5.70.

Consider `Cn1ncc2c1-c1ccccc1OC21CCN(C(=O)c2cccc3c2cnn3C)CC1` [Compound 867], for which the pIC50 is no less than 5.70.

For `COc1cc(C(=O)N2CCC3(CC2)Oc2ccccc2-n2cccc23)ccc1OCC(C)(C)OC` [Compound 847], the pIC50 is no less than 5.70.

Take `COc1cccc(OC)c1C(=O)N1CCC2(CC1)Oc1cc(Cl)ccc1-n1cccc12` [Compound 703]: the pIC50 is no less than 5.70.

As for `CC(C)NS(=O)(=O)c1ccc(C(=O)N2CCC3(CC2)Oc2ccccc2-n2c(C#N)ccc23)cc1` [Compound 721], the pIC50 was no less than 5.70.

In the case of `Cc1cc(C(=O)N2CCC3(CC2)Oc2ccccc2-n2cccc23)ccc1C#N` [Compound 562], the pIC50 is no less than 5.70.

For the compound `CC(C)Oc1ccc(C(=O)N2CCC3(CC2)Oc2ccccc2-c2c3cnn2C)cc1Cl` [Compound 135], the pIC50 was no less than 5.70.

Turning to `CC(C)S(=O)(=O)c1ccc(C(=O)N2CCC3(CC2)Oc2ccccc2-n2c(C#N)ccc23)cc1` [Compound 297], the pIC50 was no less than 5.70.

For `COc1cc(S(=O)(=O)C(C)C)ccc1C(=O)N1CCC2(CC1)Oc1ccccc1-c1c2cnn1C` [Compound 336], the pIC50 was no less than 5.70.

As to `Cc1cc(C(=O)N2CCC3(CC2)Oc2ccccc2-c2c3cnn2C)ccc1S(=O)(=O)C(C)C` [Compound 543], the pIC50 is no less than 5.70.

As for `COc1cc(C(=O)N2CCC3(CC2)Oc2ccccc2-c2c3cnn2C)ccc1S(=O)(=O)C(C)(C)C` [Compound 557], the pIC50 was no less than 5.70.

For the compound `Cc1cc(C(=O)N2CCC3(CC2)Oc2cc(C#N)ccc2-n2cccc23)ccc1OC(C)C` [Compound 338], the pIC50 was no less than 5.70.

Turning to `O=C(c1ccccc1)N1CCC2(CC1)Oc1ccccc1-n1cccc12` [Compound 241], the pIC50 was less than 5.30.

Regarding `Cn1ncc2c1-c1cc(F)ccc1OC21CCN(C(=O)c2ccccc2OC(F)(F)F)CC1` [Compound 382], the pIC50 was no less than 5.70.

For `Cc1cc(C(=O)N2CCC3(CC2)Oc2ccccc2-n2c(C(F)(F)F)ccc23)ccc1S(=O)(=O)N(C)C` [Compound 413], the pIC50 is no less than 5.70.

`Cc1cc(C(=O)N2CCC3(CC2)Oc2ccccc2-c2ncn(C)c23)ccc1OC(C)C` [Compound 525]: the pIC50 was no less than 5.70.

On to `CCCCc1nc2cc(C(=O)N3CCC4(CC3)Oc3ccccc3-n3c(C(F)(F)F)ccc34)ccc2o1` [Compound 198], for which the pIC50 was no less than 5.70.

With `COc1ccc(C(=O)N2CCC3(CC2)Oc2cc(Cl)ccc2-n2c(C#N)ccc23)cc1C(F)(F)F` [Compound 392], the pIC50 was no less than 5.70.

Turning to `COc1c(F)cccc1C(=O)N1CCC2(CC1)Oc1ccccc1-n1c(C#N)ccc12` [Compound 24], the pIC50 is no less than 5.70.

As to `O=C(c1ccc(S(=O)(=O)C2CCOC2)cc1)N1CCC2(CC1)Oc1ccccc1-n1c(C(F)(F)F)ccc12` (stereo not drawn) [Compound 840], the pIC50 was no less than 5.70.

`Cc1cc(C(C)(C)O)ccc1C(=O)N1CCC2(CC1)Oc1ccc(F)cc1-c1nn(C)cc12` [Compound 796]: the pIC50 was no less than 5.70.

`COc1c(F)cccc1C(=O)N1CCC2(CC1)Oc1ccccc1-c1c2cnn1C(C)C` [Compound 544]: the pIC50 was no less than 5.70.

With `CC(C)S(=O)(=O)c1ccc(C(=O)N2CCC3(CC2)Oc2ccccc2-n2c(F)ccc23)cc1` [Compound 508], the pIC50 was no less than 5.70.

With `COc1cc(C(=O)N2CCC3(CC2)Oc2cc(Cl)ccc2-n2cccc23)ccc1OCC(N)=O` [Compound 373], the pIC50 was no less than 5.70.

On to `Cn1ncc2c1-c1ccccc1OC21CCN(C(=O)c2cccc3c2OC(C)(C)C3)CC1` [Compound 350], for which the pIC50 was no less than 5.70.

`Cc1ccc(C(=O)N2CCC3(CC2)Oc2ccccc2-n2c(C(F)(F)F)ccc23)nc1` [Compound 566]: the pIC50 was less than 5.30.

Consider `Cn1ncc2c1-c1ccccc1OC21CCN(C(=O)c2cnn(-c3ccccc3)c2C(F)(F)F)CC1` [Compound 550], for which the pIC50 was 5.30 to 5.70.

For the compound `CCc1ccc(C(=O)N2CCC3(CC2)Oc2ccccc2-n2c(C(F)(F)F)ccc23)nc1` [Compound 564], the pIC50 is 5.30 to 5.70.

Regarding `CCn1ncc2c1-c1ccccc1OC21CCN(C(=O)c2ccc(S(C)(=O)=O)c(C)c2)CC1` [Compound 582], the pIC50 is no less than 5.70.

For `O=C(c1cccnc1Oc1ccccc1)N1CCC2(CC1)Oc1ccccc1-n1c(C(F)(F)F)ccc12` [Compound 330], the pIC50 was no less than 5.70.

As to `COc1cc(C(=O)N2CCC3(CC2)Oc2cc(Cl)ccc2-n2cccc23)ccc1OC[C@@H]1COC(C)(C)O1` [Compound 751], the pIC50 is no less than 5.70.

On to `COc1cc(C(=O)N2CCC3(CC2)Oc2cc(F)ccc2-n2cccc23)ccc1OCC1CCCO1` (stereo not drawn) [Compound 632], for which the pIC50 is no less than 5.70.

On to `COC(=O)C(C)(C)c1ccc(C(=O)N2CCC3(CC2)Oc2cc(Cl)ccc2-n2cccc23)cc1OC` [Compound 723], for which the pIC50 is no less than 5.70.

Turning to `Cn1ccc(C(=O)N2CCC3(CC2)Oc2cc(Cl)ccc2-n2cccc23)cc1=O` [Compound 741], the pIC50 was 5.30 to 5.70.

On to `N#Cc1ccc2n1-c1ccccc1OC21CCN(C(=O)c2ccc(OC[C@@H](O)CO)cc2)CC1` [Compound 293], for which the pIC50 was no less than 5.70.

On to `Cc1cc(C(=O)N2CCC3(CC2)Oc2cc(F)ccc2-n2cccc23)ccc1OCC1CCCO1` (stereo not drawn) [Compound 74], for which the pIC50 was no less than 5.70.

As to `Cc1[nH]c2c(C(=O)N3CCC4(CC3)Oc3ccccc3-c3c4cnn3C)cccc2c1C` [Compound 765], the pIC50 is no less than 5.70.

In the case of `CCn1ncc2c1-c1cc(F)ccc1OC21CCN(C(=O)c2ccccc2OC(F)F)CC1` [Compound 446], the pIC50 was no less than 5.70.

`Cc1cc(OC(F)(F)F)ccc1C(=O)N1CCC2(CC1)Oc1ccccc1-c1c2cnn1C` [Compound 84]: the pIC50 was 5.30 to 5.70.

In the case of `Cn1ncc2c1-c1ccccc1OC21CCN(C(=O)c2ccc3c(ccn3C)c2)CC1` [Compound 861], the pIC50 is no less than 5.70.

In the case of `CC(C)(O)c1ccc(C(=O)N2CCC3(CC2)Oc2ccccc2-n2c(C(F)(F)F)ccc23)cc1` [Compound 722], the pIC50 is no less than 5.70.

For the compound `Cn1ncc2c1-c1ccccc1OC21CCN(C(=O)c2ccccc2OCCO)CC1` [Compound 771], the pIC50 is no less than 5.70.

As to `CC(C)Oc1ccc(C(=O)N2CCC3(CC2)Oc2ccccc2-c2nn(C)cc23)c(F)c1` [Compound 246], the pIC50 was no less than 5.70.

For `Cn1ncc2c1-c1cc(F)ccc1OC21CCN(C(=O)c2ccccc2OC(F)F)CC1` [Compound 340], the pIC50 is no less than 5.70.

Take `CC(C)(C)[S@+]([O-])c1ccc(C(=O)N2CCC3(CC2)Oc2ccccc2-n2c(C(F)(F)F)ccc23)cc1` [Compound 883]: the pIC50 is 5.30 to 5.70.

As to `N#Cc1ccc2n1-c1ccccc1OC21CCN(C(=O)c2ccc(OC3CNC3)cc2)CC1` [Compound 854], the pIC50 was 5.30 to 5.70.

In the case of `N#Cc1cccc(C(=O)N2CCC3(CC2)Oc2cc(Cl)ccc2-n2cccc23)c1` [Compound 272], the pIC50 is less than 5.30.

For `O=C(c1ccc(OC2COC2)c(C(F)(F)F)c1)N1CCC2(CC1)Oc1ccccc1-n1cccc12` [Compound 37], the pIC50 is no less than 5.70.

On to `Cc1cc(C(=O)N2CCC3(CC2)Oc2cc(Cl)ccc2-n2cccc23)ccc1OCC1CCCO1` (stereo not drawn) [Compound 547], for which the pIC50 was no less than 5.70.

`COc1ccc(C(=O)N2CCC3(CC2)Oc2ccccc2-n2cccc23)cc1C(F)(F)F` [Compound 477]: the pIC50 was no less than 5.70.

Turning to `CC[C@@H](C)Oc1ccc(C(=O)N2CCC3(CC2)Oc2ccccc2-n2cccc23)cc1C#N` [Compound 145], the pIC50 was no less than 5.70.
